Values after ≈ are worked out from the molar mass of the structure shown.
Experiments:
Type in all cases: cell-based
P. aeruginosa APAE042 = assay: MIC assay, aminoglycoside-resistant P. aeruginosa APAE042; settings: origin SPRI; for MIC (μg/ml) APAE042: phenotype AAC(6′)-II; for MIC: Pseudomonas aeruginosa, APAE042, phenotype AAC(6′)-II, read-out: MIC (μg/ml) APAE042
Procedure: (§1) The MIC assays were carried out in 150 μL volume in duplicate in 96-well clear flat-bottom plates. The bacterial suspension from an overnight culture growth in appropriate medium was added to a solution of test compound in 4% DMSO in water. Final bacterial inoculum was approximately 10^5-10^6 CFU/well. The percent growth of the bacteria in test wells relative to that observed for a well containing no compound was determined by measuring absorbance at 595 nm (A595) after 24 h. […] Both ampicillin and tetracycline are used as antibiotic-positive controls in each screening assay for E. coli, S. aureus and K. pneumoniae. Ciprofloxacin is used as an antibiotic-positive control in each screening assay for P. aeruginosa. Amikacin is used as an antibiotic-positive control in each screening assay for A. baumannii. Each of the bacterial cultures that are available from ATCC (www.atcc.org) is identified by its ATCC number.
(§2) MIC assays were carried out as set forth in Example 20 above against certain aminoglycoside-resistant strains of Pseudomonas Aeruginosa.

P. aeruginosa APAE1009 = assay: MIC assay, aminoglycoside-resistant P. aeruginosa APAE1009; settings: origin RJ - Greece; for MIC (μg/ml) APAE1009: phenotype AAC(6′)-I + Efflux; for MIC: Pseudomonas aeruginosa, APAE1009, phenotype AAC(6′)-I + Efflux, read-out: MIC (μg/ml) APAE1009
Procedure: as §1, §2

P. aeruginosa APAE1058 = assay: MIC assay, aminoglycoside-resistant P. aeruginosa APAE1058; settings: origin CF - USA; for MIC (μg/ml) APAE1058: phenotype High level efflux; for MIC: Pseudomonas aeruginosa, APAE1058, phenotype High level efflux, read-out: MIC (μg/ml) APAE1058
Procedure: as §1, §2

P. aeruginosa APAE1068 = assay: MIC assay, aminoglycoside-resistant P. aeruginosa APAE1068; settings: origin Focus - France; for MIC (μg/ml) APAE1068: phenotype AAC(6′)-I + Efflux; for MIC: Pseudomonas aeruginosa, APAE1068, phenotype AAC(6′)-I + Efflux, read-out: MIC (μg/ml) APAE1068
Procedure: as §1, §2

P. aeruginosa APAE040 = assay: MIC assay, aminoglycoside-resistant P. aeruginosa APAE040; settings: origin SPRI; for MIC (μg/ml) APAE040: phenotype AAC(3)-I; for MIC: Pseudomonas aeruginosa, APAE040, phenotype AAC(3)-I, read-out: MIC (μg/ml) APAE040
Procedure: as §1, §2

P. aeruginosa ATCC 27853 = assay: MIC assay, P. aeruginosa ATCC 27853; settings: absorbance at 595 nm after 24 h; for MIC: Pseudomonas aeruginosa, ATCC27853, read-out: MIC (μg/ml) P. aeruginosa ATCC 27853
Procedure: as §1, with “CFU/well.” for “CFU/well. The percent growth of the bacteria in test wells relative to that observed for a well containing no compound was determined by measuring absorbance at 595 nm (A595) after 24 h.”, “Ciprofloxacin is used as an antibiotic-positive control in each screening assay for P. aeruginosa.” left out

A. baumannii ATCC 19606 = assay: MIC assay, A. baumannii ATCC 19606; settings: absorbance at 595 nm after 24 h; for MIC: Acinetobacter baumannii, ATCC19606, read-out: MIC (μg/ml) A. baumannii ATCC 19606
Procedure: as §1

S. aureus ATCC 29213 = assay: MIC assay, S. aureus ATCC 29213; settings: absorbance at 595 nm after 24 h; for MIC: Staphylococcus aureus, ATCC29213, read-out: MIC (μg/ml) S. aureus ATCC 29213
Procedure: as §1

E. coli ATCC 25922 = assay: MIC assay, E. coli ATCC 25922; settings: absorbance at 595 nm after 24 h; for MIC: Escherichia coli, ATCC25922, read-out: MIC (μg/ml) E. coli ATCC 25922
Procedure: as §1, with “CFU/well.” for “CFU/well. The percent growth of the bacteria in test wells relative to that observed for a well containing no compound was determined by measuring absorbance at 595 nm (A595) after 24 h.”, “Ciprofloxacin is used as an antibiotic-positive control in each screening assay for P. aeruginosa.” left out

K. pneumoniae ATCC 10031 = assay: MIC assay, K. pneumoniae ATCC 10031; settings: absorbance at 595 nm after 24 h; for MIC: Klebsiella pneumoniae, ATCC10031, read-out: MIC (μg/ml) K. pneumoniae ATCC 10031
Procedure: as §1

[1] = system: aminoglycoside-resistant Pseudomonas aeruginosa; assay: MIC assays against aminoglycoside-resistant strains of Pseudomonas aeruginosa, summary in words; settings: particularly strains expressing efflux-based resistance alone or with AMEs; in comparison to compound 10 and comparative compounds A and B
Procedure: as §1, §2

| MIC (μg/ml) APAE042 (P. aeruginosa APAE042) | MIC (μg/ml) APAE1009 (P. aeruginosa APAE1009) | MIC (μg/ml) APAE1058 (P. aeruginosa APAE1058) | MIC (μg/ml) APAE1068 (P. aeruginosa APAE1068) | MIC (μg/ml) APAE040 (P. aeruginosa APAE040) | MIC (P. aeruginosa ATCC 27853) | MIC (A. baumannii ATCC 19606) | MIC (S. aureus ATCC 29213) | MIC (E. coli ATCC 25922) | MIC (K. pneumoniae ATCC 10031) | MIC (P. aeruginosa APAE042) | MIC (P. aeruginosa APAE1009) | MIC (P. aeruginosa APAE1058) | MIC (P. aeruginosa APAE1068) | MIC (P. aeruginosa APAE040) | Structure (SMILES) | other results |
| --- | --- | --- | --- | --- | --- | --- | --- | --- | --- | --- | --- | --- | --- | --- | --- | --- |
| 4 µg/mL (≈ 6.89 µM) | >8 µg/mL | >8 µg/mL | 8 µg/mL | 4 µg/mL (≈ 6.89 µM) | – | – | – | – | – | – | – | – | – | – | NCC1C=CC(N)C(OC2C(N)CC(N)C(O)C2OC2OC(CO)C(OC3OC(CN)C(O)C(O)C3N)C2O)O1 (centres unmarked) [A, 3′,4′-Di-deoxy-3′,4′-Di-dehydro-neomycin-B, reference compound] | – |
| – | – | – | – | – | 1 to 8 µg/mL (≈ 1.71 to 13.7 µM) | > 8 µg/mL | 1 to 8 µg/mL (≈ 1.71 to 13.7 µM) | 1 to 8 µg/mL (≈ 1.71 to 13.7 µM) | < 1 µg/mL | – | – | – | – | – | NCC[C@H](O)C(=O)N[C@@H]1C[C@H](N)[C@@H](O[C@H]2O[C@H](CN)[C@@H](O)[C@H](O)[C@H]2O)[C@H](O)[C@H]1O[C@H]1O[C@H](CO)[C@@H](O)[C@H](N)[C@H]1O [Amikacin, reference compound] | – |
| 2 µg/mL (≈ 3.43 µM) | >8 µg/mL | >8 µg/mL | 4 µg/mL | 1 µg/mL (≈ 1.72 µM) | – | – | – | – | – | – | – | – | – | – | NCC1CCC(N)C(OC2C(N)CC(N)C(O)C2OC2OC(CO)C(OC3OC(CN)C(O)C(O)C3N)C2O)O1 (centres unmarked) [B, 3′,4′-Di-deoxy-neomycin-B, reference compound] | – |
| – | – | – | – | – | < 1 µg/mL | 1 to 8 µg/mL (≈ 1.46 to 11.7 µM) | < 1 µg/mL | < 1 µg/mL | < 1 µg/mL | 1 µg/mL (≈ 1.46 µM) | 4 µg/mL | 32 µg/mL (≈ 46.8 µM) | 8 µg/mL | 2 µg/mL (≈ 2.93 µM) | NCC[C@H](O)C(=O)N[C@@H]1C[C@H](N)[C@@H](O[C@H]2O[C@H](CN)CC[C@H]2N)[C@H](O[C@@H]2O[C@H](CO)[C@@H](O[C@H]3O[C@@H](CN)[C@@H](O)[C@H](O)[C@H]3N)[C@H]2O)[C@H]1O [Compound 10, 3′,4′-Di-deoxy-N-1 haba neomycin] | – |
| – | – | – | – | – | 1 to 8 µg/mL (≈ 1.47 to 11.7 µM) | 1 to 8 µg/mL (≈ 1.47 to 11.7 µM) | < 1 µg/mL | 1 to 8 µg/mL (≈ 1.47 to 11.7 µM) | < 1 µg/mL | 0.5 µg/mL (≈ 0.733 µM) | 2 µg/mL | 16 µg/mL (≈ 23.5 µM) | 2 µg/mL | 1 µg/mL (≈ 1.47 µM) | NCC[C@H](O)C(=O)N[C@@H]1C[C@H](N)[C@@H](O[C@H]2O[C@H](CN)C=C[C@H]2N)[C@H](O[C@@H]2O[C@H](CO)[C@@H](O[C@H]3O[C@@H](CN)[C@@H](O)[C@H](O)[C@H]3N)[C@H]2O)[C@H]1O [Compound 11] | activity on aminoglycoside-resistant Pseudomonas aeruginosa strains [1]: superior activity |
| – | – | – | – | – | – | – | – | – | – | – | – | – | – | – | NCC[C@H](O)C(=O)NC1CC(N)C(OC2OC(CN)CC(O)C2N)C(OC2OC(CO)C(OC3OC(CN)C(O)C(O)C3N)C2O)C1O (some centres unmarked) [Compound 18, 4′-Deoxy-N-1 haba neomycin] | MIC (μg/ml) P. aeruginosa ATCC 27853 (P. aeruginosa ATCC 27853): A (MIC's of 1.0 μg/mL or less = A); MIC (μg/ml) A. baumannii ATCC 19606 (A. baumannii ATCC 19606): B (MIC's of greater than 1.0 μg/mL to 8.0 μg/mL = B); MIC (μg/ml) S. aureus ATCC 29213 (S. aureus ATCC 29213): B (MIC's of greater than 1.0 μg/mL to 8.0 μg/mL = B); MIC (μg/ml) E. coli ATCC 25922 (E. coli ATCC 25922): B (MIC's of greater than 1.0 μg/mL to 8.0 μg/mL = B); MIC (μg/ml) K. pneumoniae ATCC 10031 (K. pneumoniae ATCC 10031): A (MIC's of 1.0 μg/mL or less = A) |
